# Reference: article PMC9696068 (2022)
# System: AT11 on 2[G4]-(N3)127/(AT11)34/(Cy5)1 (aptadendrimer) (DNA, G4) TGGTGGTGGTTGTTGTGGTGGTGGTGGT
# Assay: steady-state and time-resolved fluorescence, fluorescence anisotropy
# Details: K+ 65 mM KCl plus potassium phosphate; 20 mM phosphate pH 6.9, room temperature; 0.5 µM C8, aptadendrimer titrated; dendrimer core may contribute
structure (smiles),measurement,value
CN(C)c1ccc2cc3ccc(N(C)C)cc3[n+](CCCCCCCCNC(=O)c3ccc(I)cc3)c2c1,binding,yes
